Measured values: patent US11654199B2 (BOLT BIOTHERAPEUTICS, INC., priority 2019, dated 2023)

Key:
human TLR8 = biological target: T1, human TLR8 (Homo sapiens, UniProt Q9NR97); experiment: HEK293 NFKB reporter assay, human TLR8; type: cell-based; settings: HEK293 NFKB reporter cells expressing human TLR8; read-out: HEK293 hTLR8 EC50
T1 construct: host or cells: HEK293 reporter cells
T1 sequence (Q9NR97 27-1041): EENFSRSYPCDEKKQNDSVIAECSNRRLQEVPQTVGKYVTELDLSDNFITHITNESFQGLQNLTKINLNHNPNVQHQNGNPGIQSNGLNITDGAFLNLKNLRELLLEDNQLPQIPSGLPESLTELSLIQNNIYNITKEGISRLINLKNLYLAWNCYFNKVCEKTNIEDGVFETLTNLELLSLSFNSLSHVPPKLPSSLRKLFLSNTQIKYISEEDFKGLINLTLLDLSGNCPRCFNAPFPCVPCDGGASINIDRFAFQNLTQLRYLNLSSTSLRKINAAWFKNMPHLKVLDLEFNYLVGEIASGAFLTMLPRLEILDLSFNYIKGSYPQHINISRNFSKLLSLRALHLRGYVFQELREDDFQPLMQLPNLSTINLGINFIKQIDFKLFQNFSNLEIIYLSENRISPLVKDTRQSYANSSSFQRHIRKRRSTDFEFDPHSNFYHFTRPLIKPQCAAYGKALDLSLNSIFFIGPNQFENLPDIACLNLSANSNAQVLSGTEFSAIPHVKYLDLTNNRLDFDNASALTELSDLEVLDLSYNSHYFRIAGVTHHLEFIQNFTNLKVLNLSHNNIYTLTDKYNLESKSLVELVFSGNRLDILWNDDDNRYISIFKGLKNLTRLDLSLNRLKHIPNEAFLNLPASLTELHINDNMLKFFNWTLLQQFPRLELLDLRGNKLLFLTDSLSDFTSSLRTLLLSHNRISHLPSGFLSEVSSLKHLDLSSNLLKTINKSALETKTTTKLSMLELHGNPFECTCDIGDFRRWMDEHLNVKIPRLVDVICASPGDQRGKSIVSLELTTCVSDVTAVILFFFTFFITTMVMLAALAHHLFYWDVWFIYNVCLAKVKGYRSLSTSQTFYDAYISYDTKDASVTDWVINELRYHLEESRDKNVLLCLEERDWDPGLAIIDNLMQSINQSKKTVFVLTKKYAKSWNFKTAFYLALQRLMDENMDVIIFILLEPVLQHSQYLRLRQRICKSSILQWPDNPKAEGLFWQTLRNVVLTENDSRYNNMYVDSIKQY
Procedure, shortened: (§1)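 HEK293 NF-κB reporter cells expressing human TLR7 or TLR8 were seeded at 4×10^4 cells/well in HEK detection medium containing the stimulatory molecules. Reporter activity was read by absorbance at 620-655 nm.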

human TLR7 = biological target: T2, human TLR7 (Homo sapiens, UniProt Q9NYK1); experiment: HEK293 NFKB reporter assay, human TLR7; type: cell-based; settings: HEK293 NFKB reporter cells expressing human TLR7; read-out: HEK293 hTLR7 EC50
T2 construct: host or cells: HEK293 reporter cells
T2 sequence (Q9NYK1 27-1049): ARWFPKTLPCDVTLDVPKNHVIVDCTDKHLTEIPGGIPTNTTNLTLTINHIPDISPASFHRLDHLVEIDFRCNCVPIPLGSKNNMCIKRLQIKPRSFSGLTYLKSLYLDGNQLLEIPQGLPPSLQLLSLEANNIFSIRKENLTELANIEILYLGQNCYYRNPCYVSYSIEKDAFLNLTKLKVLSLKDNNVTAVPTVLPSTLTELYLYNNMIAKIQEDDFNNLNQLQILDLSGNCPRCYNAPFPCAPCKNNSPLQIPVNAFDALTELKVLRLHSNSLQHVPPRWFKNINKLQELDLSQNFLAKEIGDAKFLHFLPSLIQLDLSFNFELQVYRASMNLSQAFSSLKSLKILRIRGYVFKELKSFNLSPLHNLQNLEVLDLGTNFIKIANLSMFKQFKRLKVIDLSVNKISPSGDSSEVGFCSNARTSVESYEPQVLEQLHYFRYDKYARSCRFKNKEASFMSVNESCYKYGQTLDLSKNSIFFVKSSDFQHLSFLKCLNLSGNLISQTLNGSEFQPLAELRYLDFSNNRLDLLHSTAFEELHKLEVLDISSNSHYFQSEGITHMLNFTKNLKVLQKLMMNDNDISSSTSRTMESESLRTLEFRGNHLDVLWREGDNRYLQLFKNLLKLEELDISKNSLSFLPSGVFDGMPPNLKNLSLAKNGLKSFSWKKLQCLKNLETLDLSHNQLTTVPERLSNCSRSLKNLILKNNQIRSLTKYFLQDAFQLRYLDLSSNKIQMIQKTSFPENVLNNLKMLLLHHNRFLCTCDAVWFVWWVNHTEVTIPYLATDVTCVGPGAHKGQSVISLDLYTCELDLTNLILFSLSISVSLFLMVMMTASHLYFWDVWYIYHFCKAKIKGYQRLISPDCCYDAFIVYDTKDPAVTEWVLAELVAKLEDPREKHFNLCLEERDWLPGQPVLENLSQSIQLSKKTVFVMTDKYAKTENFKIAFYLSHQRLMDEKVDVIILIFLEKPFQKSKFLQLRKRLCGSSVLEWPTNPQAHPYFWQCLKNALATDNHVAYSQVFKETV
Procedure, shortened: as §1

CCCN(CCC)C(=O)C1=Cc2sc(S(=O)(=O)NCCCN)cc2N=C(N)C1 [TAZ-56]
EC50 (human TLR8): > 9 µM | EC50 (human TLR7): > 9 µM

CCCN(CCCNC(=O)OC1CCC1)C(=O)C1=Cc2sc(C#CC3CCNCC3)cc2N=C(N)C1 [TAZ-164]
EC50 (human TLR8): 3.89 µM | EC50 (human TLR7): 0.476 µM

CCCN(OCC)C(=O)C1=Cc2sc(CN3CCC4(CCNC4)CC3)cc2N=C(N)C1 [TAZ-240]
EC50 (human TLR8): 5.46 µM | EC50 (human TLR7): 4.25 µM

CCCN(CCC)C(=O)C1=Cc2sc(CCCCNC(=O)OC(C)(C)C)cc2N=C(N)C1 [TAZ-36]
EC50 (human TLR8): > 9 µM | EC50 (human TLR7): 8.52 µM

CCCN(OCC)C(=O)C1=Cc2sc(CN3CC4CCC(C3)N4C(=O)OC(C)(C)C)cc2N=C(N)C1 [TAZ-241]
EC50 (human TLR8): 3.06 µM | EC50 (human TLR7): 2.81 µM

CCCN(CCC)C(=O)C1=Cc2sc(CN3CCN(C(=O)OC(C)(C)C)CC3)cc2N=C(N)C1 [TAZ-43]
EC50 (human TLR8): > 9 µM | EC50 (human TLR7): > 9 µM

CCCN(Cc1ccc(CNC(=O)OC(C)(C)C)cc1C(F)(F)F)C(=O)C1=Cc2sccc2N=C(N)C1 [TAZ-51]
EC50 (human TLR8): 5.63 µM | EC50 (human TLR7): > 9 µM

CCCN(OCC)C(=O)C1=Cc2sc(CN3CCNCC3)cc2N=C(N)C1 [TAZ-94]
EC50 (human TLR8): 0.101 µM | EC50 (human TLR7): 6.2 µM

CCCN(CCc1ccc(OC)cc1)C(=O)C1=Cc2sc(CCCCCN)cc2N=C(N)C1 [TAZ-107]
EC50 (human TLR8): 6.98 µM | EC50 (human TLR7): 3.58 µM

CCCN(CC12CC(CN)(C1)C2)C(=O)C1=Cc2sccc2N=C(N)C1 [TAZ-41]
EC50 (human TLR8): > 9 µM | EC50 (human TLR7): > 9 µM

CCCN(CCCNC(=O)NCC)C(=O)C1=Cc2sc(CCCCCNC(=O)OC(C)(C)C)cc2N=C(N)C1 [TAZ-170]
EC50 (human TLR8): 3.37 µM | EC50 (human TLR7): 0.282 µM

CCCN(Cc1ccc(CN(C)C)cc1)C(=O)C1=Cc2sccc2N=C(N)C1 [TAZ-87]
EC50 (human TLR8): 0.214 µM | EC50 (human TLR7): 1.94 µM

CCCN(Cc1ccc(CCNC(=O)OC(C)(C)C)cc1)C(=O)C1=Cc2sccc2N=C(N)C1 [TAZ-59]
EC50 (human TLR8): > 9 µM | EC50 (human TLR7): > 9 µM

CCCN(OCC)C(=O)C1=Cc2sc(CN3CCC(N)C3)cc2N=C(N)C1 (centres unmarked) [TAZ-234]
EC50 (human TLR8): 0.361 µM | EC50 (human TLR7): 3.33 µM

CCCN(CCc1ccc(OC)cc1)C(=O)C1=Cc2sc(CCCCCNC(=O)OC(C)(C)C)cc2N=C(N)C1 [TAZ-106]
EC50 (human TLR8): > 9 µM | EC50 (human TLR7): 4.73 µM

CCCN(OCCNC(=O)CC(C)(C)C)C(=O)C1=Cc2sc(CCCCCN)cc2N=C(N)C1 [TAZ-149]
EC50 (human TLR8): 2.24 µM | EC50 (human TLR7): 0.534 µM

CCCN(OCC)C(=O)C1=Cc2sc(CN3CC[C@@H]4[C@H](C3)CN4C(=O)OC(C)(C)C)cc2N=C(N)C1 [TAZ-228]
EC50 (human TLR8): 3.24 µM | EC50 (human TLR7): 3.76 µM

CCCN(Cc1ccc(CN)nc1C(F)(F)F)C(=O)C1=Cc2sccc2N=C(N)C1 [TAZ-70]
EC50 (human TLR8): 0.075 µM | EC50 (human TLR7): 6.61 µM

CCCN(CCC)C(=O)C1=Cc2sc(CN)cc2N=C(N)C1 [TAZ-84]
EC50 (human TLR8): 1.37 µM | EC50 (human TLR7): 4.95 µM

CCCN(Cc1cnc(CN)c(C(F)(F)F)c1)C(=O)C1=Cc2sccc2N=C(N)C1 [TAZ-104]
EC50 (human TLR8): 1.44 µM | EC50 (human TLR7): 3.17 µM

CCCN(OCC)C(=O)C1=Cc2sc(CC3CCNC3)cc2N=C(N)C1 (centres unmarked) [TAZ-236]
EC50 (human TLR8): 0.423 µM | EC50 (human TLR7): 2.22 µM

CCCN(OCC(F)(F)F)C(=O)C1=Cc2sccc2N=C(N)C1 [TAZ-103]
EC50 (human TLR8): 1.38 µM | EC50 (human TLR7): 3.82 µM

CCON(CCC(F)(F)F)C(=O)C1=Cc2sccc2N=C(N)C1 [TAZ-74]
EC50 (human TLR8): 0.301 µM | EC50 (human TLR7): 4.11 µM

CCCN(CCCNC(=O)OC1CCC1)C(=O)C1=Cc2sc(CN)cc2N=C(N)C1 [TAZ-171]
EC50 (human TLR8): 3.13 µM | EC50 (human TLR7): 5.29 µM

CCCN(Cc1ccc(CNC(C)=O)cc1)C(=O)C1=Cc2sccc2N=C(N)C1 [TAZ-45]
EC50 (human TLR8): 1.78 µM | EC50 (human TLR7): > 9 µM

CCCN(CCC)C(=O)C1=Cc2sc(C#CCCCN)cc2N=C(N)C1 [TAZ-33]
EC50 (human TLR8): > 9 µM | EC50 (human TLR7): > 9 µM

CCCN(CCCNC(=O)OC1CCC1)C(=O)C1=Cc2sc(CNC(=O)c3ccccc3)cc2N=C(N)C1 [TAZ-203]
EC50 (human TLR8): 3.25 µM | EC50 (human TLR7): 3.26 µM

CCCN(OCC)C(=O)C1=Cc2sc(C#CCCCNC(=O)OC(C)(C)C)cc2N=C(N)C1 [TAZ-72]
EC50 (human TLR8): 2.83 µM | EC50 (human TLR7): 3.15 µM

CCCN(CC1CC1)C(=O)C1=Cc2sc(CCCCCN)cc2N=C(N)C1 [TAZ-124]
EC50 (human TLR8): 1.94 µM | EC50 (human TLR7): 1.73 µM

CCCNN(CC)C(=O)C1=Cc2sccc2N=C(N)C1 [TAZ-86]
EC50 (human TLR8): 4.92 µM | EC50 (human TLR7): > 9 µM

CCCN(CCC)C(=O)C1=Cc2sc(S(=O)(=O)NCCCNC(=O)OC(C)(C)C)cc2N=C(N)C1 [TAZ-55]
EC50 (human TLR8): > 9 µM | EC50 (human TLR7): > 9 µM

CCCN(C[C@H]1C[C@@H](CN)C1)C(=O)C1=Cc2sccc2N=C(N)C1 [TAZ-49]
EC50 (human TLR8): > 9 µM | EC50 (human TLR7): > 9 µM

CCCN(CCCNC(=O)OC(C)(C)C)C(=O)C1=Cc2sc(CCCCCN)cc2N=C(N)C1 [TAZ-133, tert-butyl (3-(5-amino-2-(5-aminopentyl)-N-propyl-6H-thieno[3,2-b]azepine-7-carboxamido)propyl)carbamate]
EC50 (human TLR8): 3.01 µM | EC50 (human TLR7): 0.586 µM

CCCN(CCCNC(=O)OCc1ccccc1)C(=O)C1=Cc2sc(CCCCCNC(=O)OC(C)(C)C)cc2N=C(N)C1 [TAZ-162]
EC50 (human TLR8): 1.25 µM | EC50 (human TLR7): 1.24 µM

NCc1ccc(CN(CCC(F)(F)F)C(=O)C2=Cc3sccc3N=C(N)C2)cc1 [TAZ-77]
EC50 (human TLR8): 0.059 µM | EC50 (human TLR7): 3.9 µM

CCCN(CCC(F)(F)F)C(=O)C1=Cc2sccc2N=C(N)C1 [TAZ-64]
EC50 (human TLR8): 2.74 µM | EC50 (human TLR7): 5.06 µM

CCCN(CCC)C(=O)C1=Cc2sc(CNC(=O)CCN)cc2N=C(N)C1 [TAZ-90]
EC50 (human TLR8): 3.19 µM | EC50 (human TLR7): 0.909 µM
